Results on 24 compounds are retold here after patent US20250163006A1, “New Coolants, and Preparations Containing Same” (Symrise AG, priority 2022, published 2025).

Molecules are shown by their SMILES. Read-outs that look alike come from different tables or passages of the source.

The EC50 is the concentration that produces a half-maximal response.

The nature of test [1]: Sensory tasting of cooling intensity by trained panelists, WS-3 as reference. It is filed as in vivo, human. Conditions: 5 ppm in 5% sugar solution, rated after one minute, scale 1 (very weak) to 9 (very strong); for Sensory evaluation: cooling intensity; for cooling intensity (sensory evaluation, score): tasted 40 seconds, n=10 to 11. The method, then: In order to quantify the cooling effect, comparative tests are carried out using menthane-3-carboxylic acid-N-ethylamide as a reference. For these comparative tests, the skilled person replaces the compound or compounds to be used according to the invention with menthane-3-carboxylic acid-N-ethylamide (also referred to as WS-3). Then the intensities of the cooling effects of the respective compounds or active ingredients are sensory evaluated by trained panelists (n=10 to 11) as described below and compared with each other.
The cooling intensity was tested as follows: Test solutions with 5 ppm of the compounds according to the invention were each tasted in a 5% sugar solution as well as a corresponding solution with 30 ppm of the reference substance WS-3. […] The panelists tasted the corresponding test solutions for exactly 40 seconds, rinsing the entire mouth with the corresponding test solution and then spitting out the sample or reference solution. Following the tasting, the test subjects rated the respective cooling intensity after one minute according to a scale of 1 (very weak) to 9 (very strong).

The target of test [2] is T1, human TRPM8 receptor (Homo sapiens, UniProt Q7Z2W7).
T1 construct: expressed in transfected cells; host or cells: HEK293, stably transfected, tetracycline-inducible expression
T1 sequence (Q7Z2W7 whole entry): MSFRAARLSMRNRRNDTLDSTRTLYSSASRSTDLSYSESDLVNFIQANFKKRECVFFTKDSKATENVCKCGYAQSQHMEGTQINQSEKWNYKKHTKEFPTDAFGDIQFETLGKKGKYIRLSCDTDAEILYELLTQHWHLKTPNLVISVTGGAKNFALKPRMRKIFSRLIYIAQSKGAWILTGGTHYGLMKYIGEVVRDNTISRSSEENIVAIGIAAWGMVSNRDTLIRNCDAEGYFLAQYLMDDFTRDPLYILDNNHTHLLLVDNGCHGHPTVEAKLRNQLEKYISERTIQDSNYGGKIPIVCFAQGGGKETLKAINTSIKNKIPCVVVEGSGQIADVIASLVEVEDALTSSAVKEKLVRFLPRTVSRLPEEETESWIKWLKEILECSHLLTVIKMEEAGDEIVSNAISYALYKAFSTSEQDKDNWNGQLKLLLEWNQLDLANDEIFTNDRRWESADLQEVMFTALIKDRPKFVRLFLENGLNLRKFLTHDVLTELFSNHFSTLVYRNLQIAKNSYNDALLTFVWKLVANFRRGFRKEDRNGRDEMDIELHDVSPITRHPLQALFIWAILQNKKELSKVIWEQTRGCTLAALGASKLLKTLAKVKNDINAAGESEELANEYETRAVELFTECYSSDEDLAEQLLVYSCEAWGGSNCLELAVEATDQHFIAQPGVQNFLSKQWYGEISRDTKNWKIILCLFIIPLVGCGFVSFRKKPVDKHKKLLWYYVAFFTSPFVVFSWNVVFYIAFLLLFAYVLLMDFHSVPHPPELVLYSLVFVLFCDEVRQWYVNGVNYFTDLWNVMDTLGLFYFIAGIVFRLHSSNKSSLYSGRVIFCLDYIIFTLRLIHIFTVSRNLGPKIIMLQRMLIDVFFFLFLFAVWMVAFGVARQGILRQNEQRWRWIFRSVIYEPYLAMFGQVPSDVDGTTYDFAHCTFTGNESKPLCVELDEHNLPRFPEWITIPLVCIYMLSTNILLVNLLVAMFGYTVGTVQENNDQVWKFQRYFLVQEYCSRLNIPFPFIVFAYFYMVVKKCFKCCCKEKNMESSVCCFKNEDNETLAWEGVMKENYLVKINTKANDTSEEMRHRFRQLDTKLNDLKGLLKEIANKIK
The experiment in a line: Assay on TRPM8 modulators: Ca2+-sensitive dye (Fluo-4) fluorescence in HEK293-TRPM8 test cells. Further details: relative TRPM8 activation: concentration or dose not given beside the values. It is filed as cell-based. Conditions: for relative TRPM8 activation: HEK293 cells recombinantly expressing human TRPM8; for EC50: HEK293-TRPM8 cells. The procedure, abridged:
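HEK293 cells stably carrying tetracycline-inducible human TRPM8 (1 µg/ml tetracycline), loaded next day with Fluo-4 (30 min 37 °C, 30 min RT). Compounds tested in triplicate at 0.1–200 µM (≤2% DMSO) and fluorescence read at 485/520 nm. EC50 from 4- or 5-parameter logistic fits of 6–10 concentrations.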

[3] abbreviates: TRPM8 activation, 6 to 10 concentrations, logistic curve fitting, read-out: EC50 value.

Compound `O=C(CCc1nc(-c2ccccc2)c(-c2ccccc2)o1)NC1CC1` [Compound A-22, N-cyclopropyl-3-(4,5-diphenyloxazol-2-yl)propanamide] came in with a Sensory evaluation in test [1] (Table 6) of 0.8. Further, the “relative TRPM8 activation” value in test [2] is recorded as 69%.
With `O=C(CSc1nnc(-c2ccccc2)c(-c2ccccc2)n1)N1CCC1` [Compound B-06, 1-(azetidin-1-yl)-2-[(5,6-diphenyl-1,2,4-triazin-3-yl)sulfanyl]ethanone], the Sensory evaluation in test [1] (Table 5) and in test [1] (Table 9) was 3.0 in each case. Further, the EC50 is no more than 1000 nM in test [2] (setting [3]); 280 nM in test [2] (Table 5, read-out: TRPM8 EC50); 280 nM in test [2] (Table 7, read-out: TRPM8 EC50).
`CNC(=O)[C@H]1C[C@@H]1c1nc(-c2ccccc2)c(-c2ccccc2)o1` (racemic) [Compound A-39, rac-(1S,2S)-2-(4,5-diphenyloxazol-2-yl)-N-methyl-cyclopropane-carboxamides]: in test [1] (Table 6), the Sensory evaluation amounted to 0.7. The “relative TRPM8 activation” value in test [2] was 5%.
Take `CNC(=O)C(C)Sc1nc(-c2ccccc2)c(-c2ccccc2)o1` (stereo not shown) [Compound A-02, 2-(4,5-diphenyloxazol-2-yl)sulfanyl-N-methyl-propanamide]: the “cooling intensity (sensory evaluation, score)” value (from here on “cooling intensity”) in test [1] came out at 5.4. For the same compound, the Sensory evaluation in test [1] (Table 6) and in test [1] (Table 10) was 5.4 each time. Moreover, the EC50 came to 10 nM in test [2] (Table 6, read-out: TRPM8 EC50) and 10 nM in test [2] (Table 8, read-out: TRPM8 EC50).
On to `CC(Sc1nc(-c2ccccc2)c(-c2ccccc2)o1)C(=O)NC1CC1` (stereo not shown) [Compound A-10, N-cyclopropyl-2-(4,5-diphenyloxazol-2-yl) sulfanyl-propanamide], for which the “cooling intensity” value in test [1] is recorded as 5.38. The Sensory evaluation in test [1] (Table 6) and in test [1] (Table 10) was 5.38 in each case. Also, the EC50 was found to be 2130 nM in test [2] (Table 6, read-out: TRPM8 EC50) and 2130 nM in test [2] (Table 8, read-out: TRPM8 EC50).
In test [1] (Table 6), `O=C(CCc1nc(-c2ccccc2)c(-c2ccccc2)o1)NC1CC1` [Compound A-18, N-cyclopropyl-3-(4,5-diphenyloxazol-2-yl)propanamide] yielded a Sensory evaluation of 0.71. In test [2], the “relative TRPM8 activation” value amounted to 80%.
For `CNC(=O)C(C)Sc1nc(C)c(-c2ccccc2)o1` (stereo not shown) [Compound A-05, N-methyl-2-(4-methyl-5-phenyl-oxazol-2-yl)sulfanyl-propanamide], the Sensory evaluation in test [1] (Table 6) and in test [1] (Table 10) was 1.1 throughout. The 50% effective concentration (EC50) in test [2] (Table 6, read-out: TRPM8 EC50) was found to be 2310 nM; in test [2] (Table 8, read-out: TRPM8 EC50), 2310 nM.
`CNC(=O)[C@H]1C[C@H]1c1nc(-c2ccccc2)c(-c2ccccc2)o1` (racemic) [Compound A-04, rac-(1S,2R)-2-(4,5-diphenyloxazol-2-yl)-N-methyl-cyclopropane-carboxamides]: the Sensory evaluation in test [1] (Table 6) and in test [1] (Table 10) was 0.5 in each case. Besides, the EC50 was no more than 1000 nM in test [2] (setting [3]); 600 nM in test [2] (Table 6, read-out: TRPM8 EC50); 600 nM in test [2] (Table 8, read-out: TRPM8 EC50).
For `CNC(=O)CCc1nc(-c2ccccc2)c(-c2ccccc2)o1` [Compound A-16, 3-(4,5-diphenyloxazol-2-yl)-N-methyl-propanamide], the Sensory evaluation in test [1] (Table 6) and in test [1] (Table 10) was 2.3 in each case. In addition, the EC50 in test [2] (Table 6, read-out: TRPM8 EC50) was 4270 nM; in test [2] (Table 8, read-out: TRPM8 EC50), 4270 nM.
For `CNC(=O)C(C)Sc1nnc(-c2ccccc2)c(-c2ccccc2)n1` (stereo not shown) [Compound B-11, 2-[(5,6-diphenyl-1,2,4-triazin-3-yl)sulfanyl]-N-methyl-propanamide], the “cooling intensity” value in test [1] was 5.3. For the same compound, the Sensory evaluation in test [1] (Table 5) and in test [1] (Table 9) was 5.3 throughout. Moreover, the EC50 in test [2] (Table 5, read-out: TRPM8 EC50) was 1430 nM; in test [2] (Table 7, read-out: TRPM8 EC50) it was 1430 nM.
Turning to `CC(Sc1nc(-c2ccccc2)c(-c2ccccc2)o1)C(N)=O` (stereo not shown) [Compound A-20, 2-(4,5-diphenyloxazol-2-yl)sulfanyl-propanamide], the Sensory evaluation in test [1] (Table 6) came out at 0.81. Moreover, in test [2], the “relative TRPM8 activation” value is on record as 73%.
Regarding `CNC(=O)C(C)Sc1cnc(-c2ccccc2)c(-c2ccccc2)n1` (stereo not shown) [Compound B-02, 2-(5,6-diphenylpyrazin-2-yl)sulfanyl-N-methyl-propanamide], the “cooling intensity” value in test [1] is 4.1. Besides, the Sensory evaluation in test [1] (Table 5) and in test [1] (Table 9) was 4.1 throughout. Moreover, the EC50 is no more than 1000 nM in test [2] (setting [3]); 80 nM in test [2] (Table 5, read-out: TRPM8 EC50); 80 nM in test [2] (Table 7, read-out: TRPM8 EC50).
On to `CC(Sc1nnc(-c2ccccc2)c(-c2ccccc2)n1)C(=O)NC1CC1` (stereo not shown) [Compound B-01, N-Cyclopropyl-2-[(5,6-diphenyl-1,2,4-triazin-3-yl)sulfanyl] propanamide], for which, in test [1], the “cooling intensity” value was found to be 4.2. For the same compound, the Sensory evaluation in test [1] (Table 5) and in test [1] (Table 9) was 4.2 throughout. For the same compound, the EC50 is no more than 1000 nM in test [2] (setting [3]); 50 nM in test [2] (Table 5, read-out: TRPM8 EC50); 50 nM in test [2] (Table 7, read-out: TRPM8 EC50).
Consider `O=C(CSc1nnc(-c2ccccc2)c(-c2ccccc2)n1)NC1CC1` [Compound B-19, N-cyclopropyl-2-[(5,6-diphenyl-1,2,4-triazin-3-yl)sulfanyl]acetamide], for which the Sensory evaluation in test [1] (Table 5) and in test [1] (Table 9) was 1.9 each time.
Regarding `CCC(Sc1nc(-c2ccccc2)c(-c2ccccc2)o1)C(=O)NC` (stereo not shown) [Compound A-09, 2-(4,5-diphenyloxazol-2-yl)sulfanyl-N-methyl-butanamide], in test [1], the “cooling intensity” value turned out to be 4.66. Also, the Sensory evaluation in test [1] (Table 6) and in test [1] (Table 10) was 4.66 each time. Moreover, the EC50 was 1540 nM in test [2] (Table 6, read-out: TRPM8 EC50) and 1540 nM in test [2] (Table 8, read-out: TRPM8 EC50).
`CCCNC(=O)C(C)Sc1nc(-c2ccccc2)c(-c2ccccc2)o1` (stereo not shown) [Compound A-12, 2-(4,5-diphenyloxazol-2-yl)sulfanyl-N-propyl-propanamide]: the Sensory evaluation in test [1] (Table 6) and in test [1] (Table 10) was 1.26 in each case. The EC50 amounted to 5090 nM in test [2] (Table 6, read-out: TRPM8 EC50) and 5090 nM in test [2] (Table 8, read-out: TRPM8 EC50).
As to `CNC(=O)C(C)Sc1nnc2c3ccccc3c3ccccc3c2n1` (stereo not shown) [Compound B-07, N-methyl-2-phenanthro[9,10-e][1,2,4]triazine-3-ylsulfanyl-propanamide], the Sensory evaluation in test [1] (Table 5) and in test [1] (Table 9) was 0.75 each time. Besides, the EC50 in test [2] (EC50 value, TRPM8 activation, 6 to 10 concentrations, logistic curve fitting) was no more than 1000 nM; in test [2] (TRPM8 EC50, Table 5) it was 920 nM; in test [2] (TRPM8 EC50, Table 7) it was 920 nM.
For `CNC(=O)CSc1nc(-c2ccc(C)cc2)c(-c2ccc(C)cc2)o1` [Compound A-68, 2-[4,5-bis(p-tolyl)oxazol-2-yl]sulfanyl-N-methyl-acetamide], the “relative TRPM8 activation” value in test [2] was −2%.
Still for that read-out and setting: for `CC(Sc1nnc(-c2ccccc2)c(-c2ccccc2)n1)C(=O)NCC1CCCO1` (stereo not shown) [Compound B-32, 2-[(5,6-diphenyl-1,2,4-triazin-3-yl)sulfanyl]-N-(tetrahydrofuran-2-ylmethyl)propanamide] the value was 37%.
As for `CSCC(=O)N1CCCCC1c1nc(-c2ccc(C)cc2)co1` (stereo not shown) [Compound A-08, 2-methylsulfanyl-1-[2-[4-(p-tolyl)oxazol-2-yl]-1-piperidyl] ethanone], the EC50 in test [2] (setting [3]) was no more than 1000 nM; in test [2] (Table 6, read-out: TRPM8 EC50), 110 nM; in test [2] (Table 8, read-out: TRPM8 EC50), 110 nM.
For `Cc1nc(SC(C)C(=O)NC2CC2)[nH]c1C` (stereo not shown) [Compound A-56, N-cyclopropyl-2-[(4,5-dimethyl-1H-imidazol-2-yl)sulfanyl] propanamide], the “relative TRPM8 activation” value in test [2] came to 1%.
With `CN(C(=O)CSc1nc(-c2ccccc2)c(-c2ccccc2)o1)C1CC1` [Compound A-27, N-cyclopropyl-2-(4,5-diphenyloxazol-2-yl)sulfanyl-N-methyl-acetamide], the “relative TRPM8 activation” value in test [2] came to 42%. The EC50 in test [2] (Table 6, read-out: TRPM8 EC50) was 18000 nM; in test [2] (Table 8, read-out: TRPM8 EC50), 18000 nM.
On to `CNC(=O)C(C)Sc1nc(-c2ccccc2)c(-c2ccccc2)o1` (stereo not shown) [Compound A-03, 2-(4,5-diphenyloxazol-2-yl)sulfanylpropa noyl-methyl-ammonium; chloride], for which the EC50 in test [2] (setting [3]) was no more than 1000 nM; in test [2] (Table 6, read-out: TRPM8 EC50), 10 nM; in test [2] (Table 8, read-out: TRPM8 EC50) it was 10 nM.
For `COC(=O)Nc1nnc(-c2ccccc2)c(-c2ccccc2)n1` [Compound B-41, methyl N-(5,6-diphenyl-1,2,4-triazin-3-yl)carbamate], the “relative TRPM8 activation” value in test [2] is reported as 8%.
